Patent publication US7655832B2, “Rapid-throughput teleost regeneration assay” (The State of Oregon Acting by and Through the State Board …, priority 2006, dated 2010)

Columns and labels:
[1] = test system: adult zebrafish caudal fin regeneration; experiment: Adult zebrafish caudal fin regeneration study; type: in vivo
Description: The fish were transferred back to the tanks and were continuously exposed to vehicle or Beclomethasone until the end of the study. The exposure solutions were changed daily. The positive “hits” were of different chemical classes and using structure function analysis, a major cluster of compounds was identified as glucocorticoids (5 of the “hit” compounds). […] We selected glucocorticoids for further studies since this was the largest cluster of “hits”. […] This characteristic morphology occurs because the tissue lateral to the amputation plane continues to grow and partially collapses around the amputation plane. Since the adult fin regeneration model is more widely studied, it was important to determine if chemical “hits” identified in the larval screen would be predictive for the adult fin regeneration responses. Therefore, the regeneration response to glucocorticoids exposure on fin regeneration was also assessed in adult zebrafish.

[2] = test system: zebrafish larvae caudal fin regeneration; experiment: Larval fin regeneration with exposure in distinct time windows post amputation; type: in vivo; conditions: 1 μM
Method: Once candidate agents have been determined to affect regeneration, a number of studies may be done. In one example, the IC50 of the candidate agent is determined using methods known in the art. In another example, a secondary screen is performed to aid in identification of a target of the candidate agent. This may be accomplished in many ways. For example, after amputation, the fin undergoes several stages of regeneration. In a first stage, cells migrate into the epithelial wound cap. In a second stage, the blastema differentiates within the wound cap. In a final stage, cells proliferate, leading to outgrowth of the new fin. Thus, by adding the candidate agent to the amputated teleost for short durations of time at different, defined, times after amputation, it is possible to identify which regenerative stage or stages are sensitive to the candidate agent. Specifically, agents present for 0 to 4 hours post amputation (hpa) would preferentially target epithelial wound cap formation. Agents present between 4 and 12 hpa may specifically target blastema formation, and agents present between 12 and 24 hpa may preferentially target cellular differentiation. Finally, agents present between 24 hpa and 72 hpa would target the cellular proliferation stage.
Fertilized eggs were obtained from AB strain zebrafish (University of Oregon, Eugene, Oreg.) for all the experiments. […]

SMILES: CCC(=O)OCC(=O)[C@@]1(OC(=O)CC)[C@@H](C)C[C@H]2[C@@H]3CCC4=CC(=O)C=C[C@]4(C)[C@@]3(Cl)[C@@H](O)C[C@@]21C [Beclomethasone, Beclomethasone dipropionate]
- adult caudal fin regeneration ([1]; 0.005 mg/L waterborne, one day pre-exposure then continuous exposure): completely inhibited
- new tissue in the adult fin ([1]; at 5 dpa): essentially no new tissue
- larval fin regeneration, exposure for four hours immediately following amputation ([2]; 0-4 hpa): failed to regenerate
- larval fin regeneration, exposure beginning at 4 hpa ([2]; from 4 hpa continuously until 3 dpa): completely regenerated their fins
